Data from US20080102275A1, “Method For Coating Powders” (priority 2004, published 2008).

How the values were obtained:
[1] = release/dissolution test of pseudoephedrine particles in distilled water, quantitative determination by UV spectrophotometry; format: physicochemical; conditions: ambient temperature, FIG. 18
[2] = release/dissolution test of BSA particles in distilled water, quantitative determination by UV spectrophotometry; format: physicochemical; conditions: ambient temperature, FIG. 19
Description: This time, a heat-sensitive protein, BSA (Bovine Serum Albumin), the mean diameter of which, measured by particle size determination, is 85.6 μm, is coated according to FIG. 2 of the process according to the present invention. 3 g of BSA are placed in the system for injection by CO2 and 3 g of Precirol® are placed in the autoclave. The supercritical medium conditions are 110 bar and 50° C. for a dissolution time of 30 minutes. The pressure for injection of the BSA particles is 80 bar. Once coinjection has been carried out, the coated particles are quantitatively determined by UV spectrophotometry (FIG. 19). While the crude BSA is completely dissolved in distilled water at ambient temperature after 5 minutes, the protein coated with Precirol® (BSA 1 test) for its part takes close to 30 minutes in order to be completely dissolved in distilled water at ambient temperature.

Compound | time to complete dissolution [1] | time to complete dissolution [2]
CN[C@@H](C)[C@@H](O)c1ccccc1 [crude pseudoephedrine, pseudoephedrine] | 10 min | –
crude BSA: heat-sensitive protein, BSA (Bovine Serum Albumin), uncoated | – | 5 min
